Measurements from ChEMBL document CHEMBL3217609, “Discovery and characterization of novel potent PARP-1 inhibitors endowed with neuroprotective properties: From TIQ-A to [sequence]” (Medchemcomm, 2011).
Each block holds one molecule with its values, some of them ahead of it.

Tests used:
[1] = molecular target: T1, Poly [ADP-ribose] polymerase 1 (Homo sapiens, UniProt P09874); assay: Inhibition of human recombinant PARP1 by fluorescence based multiwell assay
[2] = molecular target: Poly [ADP-ribose] polymerase 2 (Mus musculus, UniProt O88554); assay: Inhibition of mouse recombinant PARP2 assessed as radioactivity incorporated from [adenine-2,8-3H]NAD into proteins by liquid scintillation spectrometry
[3] = Kinetic aqueous solubility of the compound at pH 7.4 at 23 degC; format: physicochemical; conditions: buffer, read-out: Kinetic_solubility
[4] = molecular target: T2, Poly [ADP-ribose] polymerase tankyrase-1 (Homo sapiens, UniProt O95271); assay: Inhibition of tankyrase-1 function in human HeLa cells; format: cell-based
T2 sequence (O95271 whole entry): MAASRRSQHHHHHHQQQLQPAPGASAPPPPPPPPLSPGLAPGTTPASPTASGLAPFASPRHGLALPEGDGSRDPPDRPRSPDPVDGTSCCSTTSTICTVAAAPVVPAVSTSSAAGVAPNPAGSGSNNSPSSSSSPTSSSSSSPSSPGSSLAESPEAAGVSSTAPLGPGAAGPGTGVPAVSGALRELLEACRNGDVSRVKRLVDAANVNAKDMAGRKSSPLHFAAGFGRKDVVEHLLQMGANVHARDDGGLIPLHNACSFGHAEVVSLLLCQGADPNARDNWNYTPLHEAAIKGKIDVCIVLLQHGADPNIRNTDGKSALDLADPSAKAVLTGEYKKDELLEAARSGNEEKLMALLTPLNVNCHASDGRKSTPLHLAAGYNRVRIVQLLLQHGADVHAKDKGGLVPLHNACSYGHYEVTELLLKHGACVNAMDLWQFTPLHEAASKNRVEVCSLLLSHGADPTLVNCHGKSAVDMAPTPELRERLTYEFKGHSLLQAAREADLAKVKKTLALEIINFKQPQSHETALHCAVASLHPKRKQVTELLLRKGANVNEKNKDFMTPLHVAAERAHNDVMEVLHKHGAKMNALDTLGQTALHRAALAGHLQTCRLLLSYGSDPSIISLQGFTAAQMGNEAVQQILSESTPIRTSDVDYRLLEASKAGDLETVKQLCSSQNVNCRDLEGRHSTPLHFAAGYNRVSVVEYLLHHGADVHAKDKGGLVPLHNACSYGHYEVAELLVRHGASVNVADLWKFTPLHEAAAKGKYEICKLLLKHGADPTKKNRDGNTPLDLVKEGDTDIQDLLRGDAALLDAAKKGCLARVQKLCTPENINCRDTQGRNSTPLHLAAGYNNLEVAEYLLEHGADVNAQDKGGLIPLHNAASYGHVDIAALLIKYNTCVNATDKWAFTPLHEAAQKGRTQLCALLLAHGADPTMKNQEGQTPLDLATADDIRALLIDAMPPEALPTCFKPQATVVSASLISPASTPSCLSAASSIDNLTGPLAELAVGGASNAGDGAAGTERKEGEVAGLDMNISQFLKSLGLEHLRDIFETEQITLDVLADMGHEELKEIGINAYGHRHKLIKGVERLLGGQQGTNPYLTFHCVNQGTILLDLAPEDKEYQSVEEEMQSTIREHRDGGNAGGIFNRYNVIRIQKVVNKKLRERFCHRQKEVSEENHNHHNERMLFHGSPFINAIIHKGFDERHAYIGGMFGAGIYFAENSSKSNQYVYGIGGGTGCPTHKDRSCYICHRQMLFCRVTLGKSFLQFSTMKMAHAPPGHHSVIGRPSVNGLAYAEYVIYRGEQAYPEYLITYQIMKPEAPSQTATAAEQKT

[5] = Clearance in rat hepatocytes assessed per 10^6 cells; format: ADME, cell-based, Hepatocyte; conditions: read-out: CLH
[6] = Clearance in human hepatocytes assessed per 10^6 cells; format: ADME, cell-based, Hepatocyte; conditions: read-out: CLH
Rattus norvegicus [7] = assay: Clearance in Sprague-Dawley rat at 10 mg/kg, iv; format: ADME, organism-based; parameters: dose 10 mg/kg, route intravenous; conditions: in vivo
[8] = Volume of distribution in Sprague-Dawley rat at 10 mg/kg, iv; format: ADME, organism-based; parameters: dose 10 mg/kg, route intravenous; conditions: in vivo
[9] = AUC (0 to infinity) in Sprague-Dawley rat at 10 mg/kg, iv; format: ADME, organism-based; parameters: time infinity, dose 10 mg/kg, route intravenous; conditions: plasma
[10] = Half life in Sprague-Dawley rat at 10 mg/kg, iv; format: ADME, organism-based; parameters: dose 10 mg/kg, route intravenous; conditions: in vivo
[11] = Ratio of drug level in brain to plasma in Sprague-Dawley rat at 10 mg/kg, iv; format: ADME, organism-based; parameters: dose 10 mg/kg, route intravenous; conditions: read-out: BPR
[12] = Cmax in Sprague-Dawley rat brain at 10 mg/kg, iv; format: ADME, organism-based; parameters: dose 10 mg/kg, route intravenous
[13] = Fraction unbound in Sprague-Dawley rat brain at 10 mg/kg, iv; format: ADME, organism-based; parameters: dose 10 mg/kg, route intravenous
Brain = assay: Free drug level in Sprague-Dawley rat brain at 10 mg/kg, iv; format: ADME, organism-based; parameters: dose 10 mg/kg, route intravenous; conditions: in vivo
hERG (KCNH2) = hERG (KCNH2) (Homo sapiens, UniProt Q12809); assay: Inhibition of human ERG at 10 uM
[14] = molecular target: T1, Poly [ADP-ribose] polymerase 1; assay: Inhibition of human PARP1 in HEK293 cells assessed as prevention of in MNNG-induced ATP depletion; format: cell-based
Cortical neurone = assay: Neuroprotective activity in mouse mixed cortical cells assessed as reduction in oxygen-glucose deprivation-induced LDH release; format: functional, cell-based
Rattus norvegicus [15] = assay: Neuroprotective activity in transient middle cerebral artery occlusion Sprague-Dawley rat model assessed as reduction in brain infarct volume at 0.1 mg/kg, ip 3 times, starting 4 hrs after occlusion relative to vehicle treated control; format: functional; conditions: route intraperitoneal
Rattus norvegicus [16] = assay: Neuroprotective activity in transient middle cerebral artery occlusion Sprague-Dawley rat model assessed as reduction in brain infarct volume at 1 mg/kg, ip 3 times, starting 4 hrs after occlusion relative to vehicle treated control; format: functional; conditions: route intraperitoneal
Rattus norvegicus [17] = assay: Neuroprotective activity in transient middle cerebral artery occlusion Sprague-Dawley rat model assessed as reduction in brain infarct volume at 10 mg/kg, ip 3 times, starting 4 hrs after occlusion relative to vehicle treated control; format: functional; conditions: route intraperitoneal
Rattus norvegicus [18] = assay: Neuroprotective activity in permanent middle cerebral artery occlusion Sprague-Dawley rat model assessed as reduction in brain infarct volume at 1 mg/kg, iv 3 times at 30 mins, 3.5 hrs and 6 hrs after occlusion relative to vehicle treated control; format: functional
[19] = Permeability of the compound by PAMPA; format: physicochemical; conditions: read-out: permeability
Cytochrome P450 2D6 = Cytochrome P450 2D6 (Homo sapiens, UniProt P10635); assay: Inhibition of CYP2D6 (unknown origin); format: ADME
[20] = Half life in rat liver microsomes; format: ADME
[21] = Half life in human liver microsomes; format: ADME

Chain of Poly [ADP-ribose] polymerase 2 (O88554 whole entry): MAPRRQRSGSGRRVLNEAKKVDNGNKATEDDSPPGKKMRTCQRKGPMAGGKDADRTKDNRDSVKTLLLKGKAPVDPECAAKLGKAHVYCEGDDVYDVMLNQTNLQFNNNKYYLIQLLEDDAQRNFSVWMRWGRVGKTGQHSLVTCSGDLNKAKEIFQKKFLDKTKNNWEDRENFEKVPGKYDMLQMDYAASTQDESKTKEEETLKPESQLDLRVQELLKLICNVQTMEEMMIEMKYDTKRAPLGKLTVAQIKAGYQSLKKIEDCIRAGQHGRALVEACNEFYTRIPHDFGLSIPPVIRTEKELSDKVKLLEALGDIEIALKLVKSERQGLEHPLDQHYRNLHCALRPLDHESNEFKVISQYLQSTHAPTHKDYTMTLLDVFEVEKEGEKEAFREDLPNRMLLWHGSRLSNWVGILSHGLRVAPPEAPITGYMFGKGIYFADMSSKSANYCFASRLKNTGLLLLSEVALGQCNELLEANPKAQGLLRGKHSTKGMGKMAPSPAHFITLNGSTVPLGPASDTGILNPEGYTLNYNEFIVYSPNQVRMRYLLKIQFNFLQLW
T1 sequence (P09874 whole entry): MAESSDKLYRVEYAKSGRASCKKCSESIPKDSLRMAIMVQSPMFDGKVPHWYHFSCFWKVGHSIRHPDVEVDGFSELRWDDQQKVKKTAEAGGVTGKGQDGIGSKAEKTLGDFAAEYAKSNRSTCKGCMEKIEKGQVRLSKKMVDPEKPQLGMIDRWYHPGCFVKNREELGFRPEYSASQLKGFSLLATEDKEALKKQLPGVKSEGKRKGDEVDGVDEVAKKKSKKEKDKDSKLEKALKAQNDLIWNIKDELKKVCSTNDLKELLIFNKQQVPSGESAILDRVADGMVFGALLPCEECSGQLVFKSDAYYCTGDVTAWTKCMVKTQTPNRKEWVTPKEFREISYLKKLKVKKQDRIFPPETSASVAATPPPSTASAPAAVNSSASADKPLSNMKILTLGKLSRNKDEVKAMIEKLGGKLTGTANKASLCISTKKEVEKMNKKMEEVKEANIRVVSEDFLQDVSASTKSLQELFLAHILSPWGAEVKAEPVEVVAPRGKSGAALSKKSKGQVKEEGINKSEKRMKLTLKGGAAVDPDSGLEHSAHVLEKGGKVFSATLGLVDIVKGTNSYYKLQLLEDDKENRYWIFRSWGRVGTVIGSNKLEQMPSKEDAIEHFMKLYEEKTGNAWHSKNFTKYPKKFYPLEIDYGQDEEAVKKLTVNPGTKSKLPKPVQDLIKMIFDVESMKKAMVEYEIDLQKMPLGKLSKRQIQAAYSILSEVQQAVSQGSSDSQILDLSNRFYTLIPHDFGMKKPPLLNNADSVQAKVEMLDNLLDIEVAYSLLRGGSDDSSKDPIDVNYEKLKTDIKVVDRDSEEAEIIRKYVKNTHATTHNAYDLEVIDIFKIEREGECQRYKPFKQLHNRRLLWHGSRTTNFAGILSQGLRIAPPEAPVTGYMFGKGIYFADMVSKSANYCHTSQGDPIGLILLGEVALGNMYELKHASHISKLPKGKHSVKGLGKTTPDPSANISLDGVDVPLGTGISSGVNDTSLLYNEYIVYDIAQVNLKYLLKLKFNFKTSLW
Chain of Cytochrome P450 2D6 (P10635 whole entry): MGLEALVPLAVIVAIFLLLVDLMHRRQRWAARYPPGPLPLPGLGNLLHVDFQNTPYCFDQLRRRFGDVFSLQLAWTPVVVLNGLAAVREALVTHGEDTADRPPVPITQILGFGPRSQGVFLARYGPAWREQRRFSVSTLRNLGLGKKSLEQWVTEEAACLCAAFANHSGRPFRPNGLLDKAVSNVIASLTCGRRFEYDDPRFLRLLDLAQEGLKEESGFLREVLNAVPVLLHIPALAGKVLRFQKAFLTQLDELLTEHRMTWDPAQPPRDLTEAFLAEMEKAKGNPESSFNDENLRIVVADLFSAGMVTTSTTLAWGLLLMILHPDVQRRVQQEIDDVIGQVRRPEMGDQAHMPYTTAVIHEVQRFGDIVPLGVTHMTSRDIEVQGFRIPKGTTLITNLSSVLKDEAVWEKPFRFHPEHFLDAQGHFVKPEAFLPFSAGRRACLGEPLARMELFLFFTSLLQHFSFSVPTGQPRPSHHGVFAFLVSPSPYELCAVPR
Chain of hERG (KCNH2) (Q12809 whole entry): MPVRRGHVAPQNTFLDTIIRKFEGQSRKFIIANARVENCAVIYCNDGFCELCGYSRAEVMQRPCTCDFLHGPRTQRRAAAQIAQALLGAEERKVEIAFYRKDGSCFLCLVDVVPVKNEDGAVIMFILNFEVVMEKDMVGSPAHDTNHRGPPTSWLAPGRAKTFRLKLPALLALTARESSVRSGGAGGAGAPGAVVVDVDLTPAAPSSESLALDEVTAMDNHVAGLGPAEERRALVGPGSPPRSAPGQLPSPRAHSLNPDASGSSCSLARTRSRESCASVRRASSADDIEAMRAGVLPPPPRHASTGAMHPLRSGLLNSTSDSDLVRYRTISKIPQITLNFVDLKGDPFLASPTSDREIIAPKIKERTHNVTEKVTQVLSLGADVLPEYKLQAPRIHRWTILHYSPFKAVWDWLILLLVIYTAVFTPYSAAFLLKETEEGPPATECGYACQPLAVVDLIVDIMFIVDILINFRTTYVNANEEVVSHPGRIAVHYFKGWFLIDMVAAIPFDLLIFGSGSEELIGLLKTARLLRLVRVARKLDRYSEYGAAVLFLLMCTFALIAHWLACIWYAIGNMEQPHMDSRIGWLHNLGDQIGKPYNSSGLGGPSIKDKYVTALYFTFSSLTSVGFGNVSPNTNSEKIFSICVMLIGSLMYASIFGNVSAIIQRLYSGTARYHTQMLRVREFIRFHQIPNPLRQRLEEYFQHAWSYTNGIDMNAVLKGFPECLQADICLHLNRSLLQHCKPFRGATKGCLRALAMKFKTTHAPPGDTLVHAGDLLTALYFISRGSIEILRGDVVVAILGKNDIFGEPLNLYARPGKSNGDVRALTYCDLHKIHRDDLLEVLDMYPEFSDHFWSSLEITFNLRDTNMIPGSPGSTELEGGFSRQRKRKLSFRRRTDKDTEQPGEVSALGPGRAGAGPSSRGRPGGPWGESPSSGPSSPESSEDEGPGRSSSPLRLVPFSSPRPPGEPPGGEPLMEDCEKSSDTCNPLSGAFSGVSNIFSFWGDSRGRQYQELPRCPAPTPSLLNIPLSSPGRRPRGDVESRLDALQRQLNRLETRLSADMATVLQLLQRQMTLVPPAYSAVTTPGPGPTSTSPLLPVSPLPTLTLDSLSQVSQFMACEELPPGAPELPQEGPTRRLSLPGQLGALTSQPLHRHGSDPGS

IC50 [1]: 900 nM
IC50 [2]: 600 nM
solubility kinetic [3]: < 100 µg/mL
SMILES: O=c1[nH]c2sccc2c2ccccc12

IC50 [1]: 180 nM
IC50 [2]: 300 nM
IC50 [4]: > 100000 nM
SMILES: CN(C)Cc1cc2c([nH]c(=O)c3ccccc32)s1

hepatocyte CLint [5]: 26.4 µL/min/1e6 cells
hepatocyte CLint [6]: 22.2 µL/min/1e6 cells
clearance (Rattus norvegicus [7]): 69 mL/min/kg
Vd [8]: 2.1 L/kg
AUC(0-inf) [9]: 1680 ng·h/mL
half-life [10]: 48 min
Kp [11]: 0.26
Cmax [12]: 678 nM
fraction unbound [13]: 0.13
Drug uptake(free) (Brain): 87 nM
IC50 [1]: 29 nM
IC50 [2]: 38 nM
IC50 [4]: > 100000 nM
EC50 [14]: 14 nM
solubility kinetic [3]: 70 µg/mL
EC50 (Cortical neurone): 300 nM
Papp [19]: 4.6 ×10⁻⁶ cm/s
IC50 (Cytochrome P450 2D6): 170000 nM
half-life [20]: 3 min
half-life [21]: 30 min
SMILES: Br.CN(C)Cc1cc2c([nH]c(=O)c3cccc(O)c32)s1
inhibition at 10 µM (hERG (KCNH2)): 14%
inhibition in vivo at 0.1 mg/kg (Rattus norvegicus [15]): 17.5%
inhibition in vivo at 1 mg/kg (Rattus norvegicus [16]): 55%
inhibition in vivo at 10 mg/kg (Rattus norvegicus [17]): 62%
inhibition in vivo at 1 mg/kg (Rattus norvegicus [18]): 42%

EC50 [14]: 945 nM
EC50 (Cortical neurone): 2370 nM
SMILES: O=c1[nH]c2ccccc2c2ccccc12
